This note sets out measurements from ChEMBL document CHEMBL3085656, “A medicinal chemistry perspective for targeting histone H3 lysine-79 methyltransferase DOT1L” (J Med Chem, 2013).

The nature of test [1]: cells. The settings on record: Homo sapiens, MLL.
Test [2] in a line: cells. To be noted: Homo sapiens, MLL. The source holds these as a separate data set.
A further test deals with MOLM-13. Put plainly: cells. To be noted: Homo sapiens.
Another test deals with THP-1. Briefly: cells. To be noted: Homo sapiens.
The subject of another test is MV4-11. Put plainly: cells. The settings on record: Homo sapiens.

The structures appear in SMILES notation.

As for `CC(C)N(CCCNC(=O)Nc1ccc(C(C)(C)C)cc1)C[C@H]1O[C@@H](n2ccc3c(N)ncnc32)[C@H](O)[C@@H]1O`, the EC50 in the test “cells [1]” turned out to be 700 nM; in the test “cells [2]”, 700 nM; in the test on MOLM-13, 4 nM; with THP-1, 4 nM; in the test with MV4-11, 4 nM.

Consider `CC(C)N(C[C@H]1O[C@@H](n2cnc3c(N)ncnc32)[C@H](O)[C@@H]1O)[C@H]1C[C@@H](CCc2nc3cc(C(C)(C)C)ccc3[nH]2)C1` [PINOMETOSTAT], for which the EC50 with MOLM-13, in the test with THP-1 and in the test on MV4-11 was 4 nM throughout.

As usually defined, the EC50 is the concentration that produces a half-maximal response. A higher EC50 goes with a less potent agent.
